Assay results reported in patent US4371537A, “Sulfur-substituted phenoxypyridines having antiviral activity” (The Dow Chemical Company, priority 1981, dated 1983).
≈ marks a conversion by molar mass, not a printed value.

Legend:
Rhinovirus Type 56 = assay: Inhibition of cytopathic effect in WI-38 cell culture tubes, rhinovirus type 56; type: cell-based; details: Enterovirus, WI-38 cells, read-out: Inhibition grade, Rhinovirus Type 56
Description: (§1) The test compound was dissolved in an appropriate solvent (generally dimethyl sulfoxide) and incubated at 56° C. for at least 15 minutes and this solution was then used to prepare various test solutions having the desired concentration of test compound in preheated WI maintenance medium (49% Eagles, 49% medium 199, 2% fetal calf serum and antibiotics).
(§2) Triplicate cell culture tubes (WI-38 human embryonic lung cell culture tubes) were fed with 1 ml of medium containing the compound at specified concentrations and inoculated with 3-300 TCID50 (3-300 times the tissue culture infective dose 50, i.e., the dose required to infect 50% of the cell cultures tested). Simultaneous viral titrations were performed. The tissue cultures were supplemented with fresh medium when necessary (around 3-4 days) until viral titrations were completed.
(§3) The cell culture tubes were examined dialy for cytopathic effect. […] Comparisons were made at that time with the percentage of cell sheet destruction in tubes containing virus compound mixtures. Observed differences of 75% or more were graded "+", 74-50% as "±", and less than 50% as "-" inhibition.

Rhinovirus Type 59 = assay: Inhibition of cytopathic effect in WI-38 cell culture tubes, rhinovirus type 59; type: cell-based; details: Enterovirus, WI-38 cells, read-out: Inhibition grade, Rhinovirus Type 59
Description: as §1, §2, §3

Rhinovirus Type 58 = assay: Inhibition of cytopathic effect in WI-38 cell culture tubes, rhinovirus type 58; type: cell-based; details: Enterovirus, WI-38 cells, read-out: Inhibition grade, Rhinovirus Type 58
Description: as §1, §2, §3

[1] = system: Coxsackie A21 virus (Cox A21); assay: Tissue culture testing, Coxsackie A21 virus in HeLa cells; type: cell-based; details: 48 and 72 hours, NA = not active at the standard test conditions, read-out: Cox A21: lowest concentration of the compound necessary to cause a 50 percent reduction in cytopathic effect
How it was run: (§4)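 Reported figures give, in μg/ml, the minimum compound level required for the effect. HeLa monolayers are exposed to compound in serum-supplemented Eagle's medium before virus is added, alongside uninfected cell controls.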

Rhinovirus Type 17 = assay: Inhibition of cytopathic effect in WI-38 cell culture tubes, rhinovirus type 17; type: cell-based; details: Enterovirus, WI-38 cells, read-out: Inhibition grade, Rhinovirus Type 17
Description: as §1, §2, §3

[2] = system: rhinovirus type 64 (RV-64); assay: Tissue culture testing, rhinovirus type 64 in HeLa cells; type: cell-based; details: Enterovirus, 48 and 72 hours, NA = not active at the standard test conditions, read-out: RV-64: lowest concentration of the compound necessary to cause a 50 percent reduction in cytopathic effect
Description: Monolayered HeLa cells in 16 millimeter (mm) tissue culture dishes were treated with 1 ml of culture medium (Eagles medium supplemented with fetal calf serum) containing subject compound at an appropriate concentration or containing no compound at all. Culture media such as those described herein are more fully described in standard texts, as for example, Kuchler's Biochemical Methods in Cell Culture and Virology, Dowden, Hutchinson and Ross, Inc., Stroudsberg, PA (1977). Following treatment, cells were challenged with 0.05 ml of rhinovirus type 1A (RV-1A), rhinovirus type 2 (RV-2) or Coxsackie A21 virus (Cox A21) in culture medium. Some of the compounds were also tested against rhinovirus type 5 (RV-5), rhinovirus type 8 (RV-8) or rhinovirus type 64 (RV-64). Cell controls received no viruses.
^2 Lowest concentration of the compound (μg/ml) necessary to cause

Rhinovirus Type 64 = assay: Inhibition of cytopathic effect in WI-38 cell culture tubes, rhinovirus type 64; type: cell-based; details: Enterovirus, WI-38 cells, read-out: Inhibition grade, Rhinovirus Type 64
Description: as §1, §2, §3

Rhinovirus Type 21 = assay: Inhibition of cytopathic effect in WI-38 cell culture tubes, rhinovirus type 21; type: cell-based; details: Enterovirus, WI-38 cells, read-out: Inhibition grade, Rhinovirus Type 21
Description: as §1, §2, §3

Rhinovirus Type 81 = assay: Inhibition of cytopathic effect in WI-38 cell culture tubes, rhinovirus type 81; type: cell-based; details: Enterovirus, WI-38 cells, read-out: Inhibition grade, Rhinovirus Type 81
Description: as §1, §2, §3

Rhinovirus Type 4 = assay: Inhibition of cytopathic effect in WI-38 cell culture tubes, rhinovirus type 4; type: cell-based; details: Enterovirus, WI-38 cells, read-out: Inhibition grade, Rhinovirus Type 4
Description: as §1, §2, §3

Rhinovirus Type 75 = assay: Inhibition of cytopathic effect in WI-38 cell culture tubes, rhinovirus type 75; type: cell-based; details: Enterovirus, WI-38 cells, read-out: Inhibition grade, Rhinovirus Type 75
Description: as §1, §2, §3

Rhinovirus Type 6 = assay: Inhibition of cytopathic effect in WI-38 cell culture tubes, rhinovirus type 6; type: cell-based; details: Enterovirus, WI-38 cells, read-out: Inhibition grade, Rhinovirus Type 6
Description: as §1, §2, §3

Cox A21 = assay: Single Oral Dose test in mice challenged IP with Cox A21; type: in vivo, Swiss male mice; details: 600 mg/kg P.O. 3 h after IP challenge; >3.84 significant (95% confidence level)
How it was run: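 A single P.O. treatment with compound suspended in 0.5% hydroxypropyl methylcellulose was given 3 h after intraperitoneal Cox A21 challenge at a normally lethal dose in 8-12 g male Swiss mice. Survival followed 7-10 days; significance versus vehicle-treated infected mice by modified Mantel-Haenzel chi-square (>3.84, 95% level).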

Rhinovirus Type 19 = assay: Inhibition of cytopathic effect in WI-38 cell culture tubes, rhinovirus type 19; type: cell-based; details: Enterovirus, WI-38 cells, read-out: Inhibition grade, Rhinovirus Type 19
Description: as §1, §2, §3

Rhinovirus Type 29 = assay: Inhibition of cytopathic effect in WI-38 cell culture tubes, rhinovirus type 29; type: cell-based; details: Enterovirus, WI-38 cells, read-out: Inhibition grade, Rhinovirus Type 29
Description: as §1, §2, §3

Hanks Untyped = assay: Inhibition of cytopathic effect in WI-38 cell culture tubes, Hanks Untyped; type: cell-based, rhinovirus; details: Enterovirus, WI-38 cells, read-out: Inhibition grade, Hanks Untyped
Description: as §1, §2, §3

[3] = system: rhinovirus type 1A (RV-1A); assay: Tissue culture testing, rhinovirus type 1A in HeLa cells; type: cell-based; details: Enterovirus, 48 and 72 hours, NA = not active at the standard test conditions, read-out: RV-1A: lowest concentration of the compound necessary to cause a 50 percent reduction in cytopathic effect
How it was run: as §4

Rhinovirus Type 68 = assay: Inhibition of cytopathic effect in WI-38 cell culture tubes, rhinovirus type 68; type: cell-based; details: Enterovirus, WI-38 cells, read-out: Inhibition grade, Rhinovirus Type 68
Description: as §1, §2, §3

Rhinovirus Type 60 = assay: Inhibition of cytopathic effect in WI-38 cell culture tubes, rhinovirus type 60; type: cell-based; details: Enterovirus, WI-38 cells, read-out: Inhibition grade, Rhinovirus Type 60
Description: as §1, §2, §3

SMILES: CCS(=O)(=O)c1ccc(Oc2ccc(C(=O)c3ccccc3)cc2)nc1 [Example 43, (4-((5-(ethylsulfonyl)-2-pyridinyl)oxy)phenyl)phenylmethanone]
- inhibition at 3 µg/mL (Rhinovirus Type 56; 3.0 μg/ml): < 50%
- inhibition at 3 µg/mL (Rhinovirus Type 59; 3.0 μg/ml): < 50%
- inhibition at 3 µg/mL (Rhinovirus Type 58; 3.0 μg/ml): < 50%
- EC50 [1]: < 3.12 µg/mL
- inhibition at 3 µg/mL (Rhinovirus Type 17; 3.0 μg/ml): ≥ 75%
- EC50 [2]: 6.25 µg/mL (≈ 17 µM)
- inhibition at 3 µg/mL (Rhinovirus Type 64; 3.0 μg/ml): < 50%
- inhibition at 3 µg/mL (Rhinovirus Type 21; 3.0 μg/ml): < 50%
- inhibition at 3 µg/mL (Rhinovirus Type 81; 3.0 μg/ml): ≥ 75%
- inhibition at 3 µg/mL (Rhinovirus Type 4; 3.0 μg/ml): < 50%
- inhibition at 3 µg/mL (Rhinovirus Type 75; 3.0 μg/ml): < 50%
- inhibition at 3 µg/mL (Rhinovirus Type 6; 3.0 μg/ml): < 50%
- Single Oral Dose X^2 (chi-square, deaths vs virus control) (Cox A21): 45.207
- inhibition at 3 µg/mL (Rhinovirus Type 19; 3.0 μg/ml): < 50%
- inhibition at 3 µg/mL (Rhinovirus Type 29; 3.0 μg/ml): ≥ 75%
- inhibition at 3 µg/mL (Hanks Untyped; 3.0 μg/ml): 50 to 74%
- EC50 [3]: ≤ 3.12 µg/mL
- inhibition at 3 µg/mL (Rhinovirus Type 68; 3.0 μg/ml): 50 to 74%
- inhibition at 3 µg/mL (Rhinovirus Type 60; 3.0 μg/ml): 50 to 74%

SMILES: CCS(=O)(=O)c1ccc(Oc2ccc(Cl)c(Cl)c2)nc1 [Example 47, 2-(3,4-dichlorophenoxy)-5-(ethylsulfonyl)pyridine]
- inhibition at 25 µg/mL (Rhinovirus Type 56; 25 μg/ml): ≥ 75%
- inhibition at 25 µg/mL (Rhinovirus Type 59; 25 μg/ml): 50 to 74%
- inhibition at 25 µg/mL (Rhinovirus Type 58; 25 μg/ml): ≥ 75%
- EC50 [1]: 2.5 µg/mL (≈ 7.53 µM)
- inhibition at 25 µg/mL (Rhinovirus Type 17; 25 μg/ml): ≥ 75%
- EC50 [2]: ≤ 0.312 µg/mL
- inhibition at 25 µg/mL (Rhinovirus Type 64; 25 μg/ml): ≥ 75%
- inhibition at 25 µg/mL (Rhinovirus Type 21; 25 μg/ml): ≥ 75%
- inhibition at 25 µg/mL (Rhinovirus Type 81; 25 μg/ml): ≥ 75%
- inhibition at 25 µg/mL (Rhinovirus Type 4; 25 μg/ml): ≥ 75%
- inhibition at 25 µg/mL (Rhinovirus Type 75; 25 μg/ml): < 50%
- inhibition at 25 µg/mL (Rhinovirus Type 6; 25 μg/ml): 50 to 74%
- Single Oral Dose X^2 (chi-square, deaths vs virus control) (Cox A21): 25.587
- inhibition at 25 µg/mL (Rhinovirus Type 19; 25 μg/ml): ≥ 75%
- inhibition at 25 µg/mL (Rhinovirus Type 29; 25 μg/ml): ≥ 75%
- inhibition at 25 µg/mL (Hanks Untyped; 25 μg/ml): ≥ 75%
- EC50 [3]: 0.312 µg/mL (≈ 0.941 µM)
- inhibition at 25 µg/mL (Rhinovirus Type 68; 25 μg/ml): ≥ 75%
- inhibition at 25 µg/mL (Rhinovirus Type 60; 25 μg/ml): ≥ 75%
